# Assay results as given in ChEMBL document CHEMBL3352707, “Antimycobacterial activity of natural products and synthetic agents: pyrrolodiquinolines and vermelhotin as anti-tubercular leads against clinical multidrug resistant isolates of Mycobacterium tuberculosis” (Eur J Med Chem, 2015).
# Test system: MRC5
# Assay: Cytotoxicity against human MRC5 cells at 50 ug/ml by MTT assay
# Type: cell-based
# Settings: not given
row,SMILES,Activity
1,COc1cccc2c1C(=O)c1c(O)c3c(c(O)c1C2=O)C[C@@](O)(C(=O)CO)C[C@@H]3O[C@H]1C[C@H](N)[C@H](O)[C@H](C)O1 [DOXORUBICIN],Non-toxic

# Test system: Mycobacterium tuberculosis
# Assay: Antimycobacterial activity against Mycobacterium tuberculosis H37Rv after 7 days by microplate Alamar blue assay
# Type: functional
# Settings: 168 h
row,SMILES,MIC
1,C/C=C/C1=CC=C/C(=C2\C(=O)CNC2=O)O1 [VERMELHOTIN],6.2 µg/mL
2,C[n+]1cc2c(cn3c4ccccc4ccc23)c2ccccc21.[I-],6.2 µg/mL
3,COCCC(=O)O,100 µg/mL
4,O=C1C[C@H]2SS[C@@]34C[C@@H]1[C@@H]([C@H]2O)N3C(=O)[C@@]12C[C@H]3C(=O)C[C@@H](S1)[C@H](O)[C@H]3N2C4=O [EPICOCCIN A],> 100 µg/mL
5,O=C(O)CC[N+](=O)[O-],12.5 µg/mL
6,CN1Cc2c(cn3c2ccc2ccccc23)-c2ccccc21,6.2 µg/mL
7,COC(=O)CCC[N+](=O)[O-],25 µg/mL

# Test system: MRC5
# Assay: Cytotoxicity against human MRC5 cells by MTT assay
# Type: cell-based
# Settings: not given
row,SMILES,IC50
1,C/C=C/C1=CC=C/C(=C2\C(=O)CNC2=O)O1 [VERMELHOTIN],6.97 µg/mL
2,C[n+]1cc2c(cn3c4ccccc4ccc23)c2ccccc21.[I-],30 µg/mL
3,CN1Cc2c(cn3c2ccc2ccccc23)-c2ccccc21,23.5 µg/mL

# Test system: Mycobacterium tuberculosis
# Assay: Antimycobacterial activity against p-Aminosalicylic acid-resistant Mycobacterium tuberculosis H37Rv ATCC 35821 after 7 days by microplate Alamar blue assay
# Type: functional
# Settings: H37Rv ATCC 35821, 168 h
row,SMILES,MIC
1,C/C=C/C1=CC=C/C(=C2\C(=O)CNC2=O)O1 [VERMELHOTIN],3.1 µg/mL
2,C[n+]1cc2c(cn3c4ccccc4ccc23)c2ccccc21.[I-],1.5 µg/mL
3,CN1Cc2c(cn3c2ccc2ccccc23)-c2ccccc21,1.5 µg/mL

# Test system: Mycobacterium tuberculosis
# Assay: Antimycobacterial activity against Mycobacterium tuberculosis H37Ra after 7 days by microplate Alamar blue assay
# Type: functional
# Settings: 168 h
row,SMILES,MIC
1,CC1=CC2=C(Cc3c(O)cc(C)oc3=O)C(=O)[C@](C)(O)[C@@H](O)C2=CO1,> 100 µg/mL
2,CC1(C)CC(=O)C2=C(C1)Oc1ccccc1C2c1c[nH]c2ccccc12 (centres undefined),50 µg/mL
3,C/C=C/C1=CC=C/C(=C2\C(=O)CNC2=O)O1 [VERMELHOTIN],3.1 µg/mL
4,COC(=O)c1cc2c(ccc3ccccc32)oc1=O,50 µg/mL
5,Cc1cc(O)c2c(c1O)C(=O)c1cc(O)cc(O)c1C2=O [CATENARIN],100 µg/mL
6,CC1(C)CC(=O)C2=C(C1)Oc1ccc(Cl)cc1C2c1c(C(=O)O)[nH]c2ccccc12 (centres undefined),100 µg/mL
7,O=C1CCCC2=C1C(c1c[nH]c3ccccc13)c1cc(Cl)ccc1O2 (centres undefined),50 µg/mL
8,CC[C@H](C)[C@@H](O)[C@@H](C)C(=O)O[C@H]1CC(CC(=O)[C@H]2[C@H](C)CCC[C@@H]2O)=C(C)C(=O)[C@@]1(C)O,> 100 µg/mL
9,COc1ccc2c(c1)C(c1c[nH]c3ccccc13)C1=C(CCCC1=O)O2 (centres undefined),100 µg/mL
10,COc1ccc2c(c1)C(C1C(=O)N(C)C(=O)N(C)C1=O)C1=C(CC(C)(C)CC1=O)O2 (centres undefined),> 100 µg/mL
11,COc1ccc2c(c1)OC1=C(C(=O)CC(C)(C)C1)C2c1c[nH]c2ccccc12 (centres undefined),100 µg/mL
12,C[C@@H]1CCN2C[C@@]34C[C@@]5(CC(=O)N(C)C5=O)C(C)(C)[C@H]3C[C@@]12C(=O)N4C,25 µg/mL
13,CN1C(=O)C(C2C3=C(CC(C)(C)CC3=O)Oc3ccc(Cl)cc32)C(=O)N(C)C1=O (centres undefined),> 100 µg/mL
14,O=c1cc(CO)occ1O [KOJIC ACID],> 100 µg/mL
15,CC(=O)c1cc2ccccc2[nH]c1=O,> 100 µg/mL
16,CCN(CC)c1ccc2c(c1)OC1=C(C(=O)CC(C)(C)C1)C2c1c[nH]c2ccccc12 (centres undefined),> 100 µg/mL
17,CC(=O)c1cc2cccc(O)c2oc1=O,> 100 µg/mL
18,COc1ccc(Br)c2c1OC1=C(C(=O)CCC1)C2n1nnc2ccccc21 (centres undefined),> 100 µg/mL
19,CC(=O)c1cc2cc(Cl)ccc2oc1=O,> 100 µg/mL
20,CC1(C)CC(=O)C2=C(C1)Oc1ccc3ccccc3c1C2c1c[nH]c2ccccc12 (centres undefined),25 µg/mL
21,COC(=O)c1cc2ccccc2oc1=O,> 100 µg/mL
22,O=C1CCCC2=C1C(c1c[nH]c3ccccc13)c1c(ccc3ccccc13)O2 (centres undefined),> 100 µg/mL

row,SMILES,MIC
1,COC(=O)C1=C(C)Oc2ccc(OC)cc2[C@@H]1[C@H](C(C)=O)C(=O)OC,> 100 µg/mL
2,CN1C(=O)C(C2C3=C(CCCC3=O)Oc3ccc([N+](=O)[O-])cc32)C(=O)N(C)C1=O (centres undefined),> 100 µg/mL
3,C[n+]1cc2c(cn3c4ccccc4ccc23)c2ccccc21.[I-],1.5 µg/mL
4,COc1ccc(Br)c2c1OC1=C(C(=O)CC(C)(C)C1)C2n1nnc2ccccc21 (centres undefined),> 100 µg/mL
5,COC(=O)C1=C(C)Oc2c(O)cccc2[C@@H]1[C@H](C(C)=O)C(=O)OC,> 100 µg/mL
6,O=C(OC[C@@H](O)[C@@H](O)COC(=O)/C(Cc1ccc(O)cc1)=N\O)/C(Cc1ccc(O)cc1)=N\O [ASPERGILLUSOL A],> 100 µg/mL
7,CN1c2cccc([N+](=O)[O-])c2C2CC1OC1=C2C(=O)CC(C)(C)C1 (centres undefined),> 100 µg/mL
8,O=C1CCCC2=C1C(c1c[nH]c3ccccc13)c1ccc(O)cc1O2 (centres undefined),> 100 µg/mL
9,NCCS(=O)(=O)O [TAURINE],> 100 µg/mL
10,CC[C@@H](C)C[C@]1(C)C=C/C(=C2/C(=O)O[C@H](CC(=O)O)C2=O)O1,100 µg/mL
11,COc1ccc2c(c1)C(n1nnc3ccccc31)C1=C(CCCC1=O)O2 (centres undefined),> 100 µg/mL
12,C/C(=C\C=C\[C@H](O)[C@@H](C)O)[C@H](O)[C@H](C)C(=O)O[C@H]1C[C@H](C)C[C@@H]2C=C[C@H](C)[C@](C)(C(=O)C(O)CO)[C@@H]12 (some centres undefined),> 100 µg/mL
13,COCCC(=O)O,> 100 µg/mL
14,C/C=C(\C)c1c(Cl)c(OC)c(C)c2c1Oc1c(Cl)c(O)c(Cl)c(C)c1C(=O)O2,100 µg/mL
15,COc1ccc2cc(C(C)=O)c(=O)oc2c1,> 100 µg/mL
16,COc1ccc(Br)c2c1OC1=C(C(=O)CC(C)(C)C1)C2c1c[nH]c2ccccc12 (centres undefined),> 100 µg/mL
17,O=C1C[C@H]2SS[C@@]34C[C@@H]1[C@@H]([C@H]2O)N3C(=O)[C@@]12C[C@H]3C(=O)C[C@@H](S1)[C@H](O)[C@H]3N2C4=O [EPICOCCIN A],> 100 µg/mL
18,C/C=C(\C)c1c(Cl)c(OC)c(C)c(O)c1Oc1c(Cl)c(O)c(Cl)c(C)c1C(=O)OC,100 µg/mL
19,CCC(N)C(=O)O (racemic),> 100 µg/mL
20,COC(=O)C1=C(C)Oc2ccc(Br)cc2[C@@H]1[C@H](C(C)=O)C(=O)OC,> 100 µg/mL
21,O=C(O)CC[N+](=O)[O-],50 µg/mL
22,O=C1c2c(O)cc(O)c([C@@H]3C(=O)c4c(O)cc(O)cc4O[C@H]3c3ccc(O)cc3)c2O[C@H](c2ccc(O)cc2)[C@H]1O,> 100 µg/mL

row,SMILES,MIC
1,CC[C@H](C)[C@@H](O)[C@@H](C)C(=O)O[C@@]1(C)C(=O)c2c(cc(O)c3c2CCC[C@H]3C)C(C)(O)C1=O (some centres undefined),> 100 µg/mL
2,CN1c2ccccc2C2CC1OC1=C2C(=O)CC(C)(C)C1 (centres undefined),> 100 µg/mL
3,O=C1CCCC2=C1C(c1c[nH]c3ccccc13)c1ccccc1O2 (centres undefined),> 100 µg/mL
4,COc1ccc2c(c1)OC1=C(C(=O)CCC1)C2c1c[nH]c2ccccc12 (centres undefined),> 100 µg/mL
5,COc1ccc2oc(=O)c(C(C)=O)cc2c1,> 100 µg/mL
6,CN1C(=O)C(C2C3=C(CCCC3=O)Oc3ccc(Cl)cc32)C(=O)N(C)C1=O (centres undefined),> 100 µg/mL
7,O=C(c1ccccc1)c1cc2cc([N+](=O)[O-])ccc2oc1=O,50 µg/mL
8,O=C1CCCC2=C1C(n1nnc3ccccc31)c1cc(Cl)ccc1O2 (centres undefined),> 100 µg/mL
9,COC(=O)[C@]1(Cc2ccc3c(c2)C[C@H](O)C(C)(C)O3)OC(=O)C(O)=C1c1ccc(O)cc1 [BUTYROLACTONE V],> 100 µg/mL
10,CN1C(=O)C(C2C3=C(CC(C)(C)CC3=O)Oc3ccc(Br)cc32)C(=O)N(C)C1=O (centres undefined),> 100 µg/mL
11,O=C1CCCC2=C1C(n1nnc3ccccc31)c1cc(Br)ccc1O2 (centres undefined),> 100 µg/mL
12,COc1ccc2c(c1)C(C1=C(O)CCCC1=O)C1=C(CCCC1=O)O2 (centres undefined),> 100 µg/mL
13,COC(=O)[C@@]12Oc3ccc(-c4ccc5c(c4O)C(O)C4=C(O)C[C@H](C)[C@@H](O)[C@]4(C(=O)OC)O5)c(O)c3C(=O)C1=C(O)C[C@H](C)[C@H]2O (some centres undefined) [SECALONIC ACID D],> 100 µg/mL
14,CN1Cc2c(cn3c2ccc2ccccc23)-c2ccccc21,0.7 µg/mL
15,CN1c2ccccc2C2CC1OC1=C2C(=O)CCC1 (centres undefined),> 100 µg/mL
16,O=C1CCCC2=C1C(c1c[nH]c3ccccc13)c1cc(Br)ccc1O2 (centres undefined),50 µg/mL
17,CC1(C)CC(=O)C2=C(C1)Oc1c(O)cccc1C2c1c[nH]c2ccccc12 (centres undefined),100 µg/mL
18,C[C@@H]1[C@H](O)[C@@H](C)/C=C/C=C/C=C/C=C/C=C/C=C/C=C/[C@H](O[C@@H]2O[C@H](C)[C@@H](O)[C@H](N)[C@@H]2O)C[C@@H]2O[C@](O)(C[C@@H](O)C[C@@H](O)[C@H](O)CC[C@@H](O)C[C@@H](O)CC(=O)O[C@H]1C)C[C@H](O)[C@H]2C(=O)O [AMPHOTERICIN B],> 100 µg/mL
19,CC1(C)CC(=O)C2=C(C1)Oc1c(cc(C(C)(C)C)cc1C(C)(C)C)C2c1c[nH]c2ccccc12 (centres undefined),> 100 µg/mL
20,COC(=O)C1=C(C)Oc2c(cc(C(C)(C)C)cc2C(C)(C)C)[C@@H]1[C@H](C(C)=O)C(=O)OC,> 100 µg/mL
21,COc1ccc(Br)c2c1OC1=C(C(=O)CCC1)C2c1c[nH]c2ccccc12 (centres undefined),> 100 µg/mL
22,O=C(c1ccccc1)c1cc2c(ccc3ccccc32)oc1=O,> 100 µg/mL

row,SMILES,MIC
1,COC(=O)[C@@H]1CC[C@@]23COC(=O)C2=CCC[C@@H]3[C@@]1(C)CC(=O)c1ccoc1,> 100 µg/mL
2,CC1(C)CC(=O)C2=C(C1)Oc1c(O)cccc1C2n1nnc2ccccc21 (centres undefined),> 100 µg/mL
3,COc1cc(O)cc2cc3c(c(O)c12)C(=O)C[C@@](C)(O)C3,25 µg/mL
4,COc1cc(O)cc2c1C(=O)c1c(O)cc(C)cc1C2=O [QUESTIN],50 µg/mL
5,CN1C(=O)C(C2C3=C(CCCC3=O)Oc3ccc(Br)cc32)C(=O)N(C)C1=O (centres undefined),> 100 µg/mL
6,CC(=O)c1cc2cc(Br)ccc2oc1=O,> 100 µg/mL
7,O=C(c1ccccc1)c1cc2cc(Cl)ccc2oc1=O,> 100 µg/mL
8,CC1(C)CC(=O)C2=C(C1)Oc1ccc(Br)cc1C2n1nnc2ccccc21 (centres undefined),> 100 µg/mL
9,O=C1NC(=O)/C(=C2/CCNC(=O)c3[nH]c(Br)cc32)N1,> 100 µg/mL
10,O=C1CCCC2=C1C(c1c[nH]c3ccccc13)c1cccc(O)c1O2 (centres undefined),> 100 µg/mL
11,CN1C(=O)C(C2C3=C(CC(C)(C)CC3=O)Oc3ccc([N+](=O)[O-])cc32)C(=O)N(C)C1=O (centres undefined),> 100 µg/mL
12,O=C(c1ccccc1)c1cc2ccccc2oc1=O,50 µg/mL
13,C/C=C(\C)c1c(Br)c(O)c(C)c2c1Oc1cc(O)c(Br)c(C)c1C(=O)O2,50 µg/mL
14,COC(=O)C1=C(C)Oc2ccc(Cl)cc2[C@@H]1[C@H](C(C)=O)C(=O)OC,> 100 µg/mL
15,C/C(=C\C=C\[C@H](O)[C@@H](C)O)[C@H](O)[C@H](C)C(=O)O[C@H]1C[C@H](C)C[C@@H]2C=C[C@H](C)[C@](C)(C(=O)CCO)[C@@H]12,> 100 µg/mL
16,CN1C(=O)C(C2C3=C(CC(C)(C)CC3=O)Oc3ccccc32)C(=O)N(C)C1=O (centres undefined),> 100 µg/mL
17,C/C(=C\C=C\[C@H](O)[C@@H](C)O)[C@H](O)[C@H](C)C(=O)O[C@H]1C[C@H](CO)C[C@@H]2C=C[C@H](C)[C@](C)(C(=O)C(O)CO)[C@@H]12 (some centres undefined),> 100 µg/mL
18,COC(=O)CCC[N+](=O)[O-],12.5 µg/mL
19,O=[N+]([O-])c1cccc2ncccc12,100 µg/mL
